# In patent publication US20220175766A1, “COMPOSITIONS AND METHODS OF TREATMENT” (GB004, Inc., priority 2019, published 2022):
# Where two headings read alike, the source gives them in different places.
# Assays:
# [1] = test system: EPO or VEGF; experiment: Phase 1a multiple dose tablet study (Example 26): EPO and VEGF change from baseline to Day 7; design: species or system human; conditions: in vivo
# [2] = pKa of Compound 1; assay type: physicochemical; conditions: two basic groups
# Source text: The pKa value expresses the strength of acids and base, i.e. the tendency for an acid to lose a proton or a base to accept a proton (Bronsted J. N. Rec. trav. Chim. (47), 718, 1923) and the protonation and deprotonation of the basic groups in the compound has a marked effect upon the solubility of Compound 1 in aqueous media. Consequently, the solubility of Compound 1 is highly dependent upon pH.
# [3] = Phase 1a multiple ascending dose study: Compound 1 in fecal samples; assay type: in vivo, human; conditions: for dose excreted: human, feces, oral, read-out: Mean recovery of Compound 1 in feces, range across cohorts
# Procedure: Fecal samples were collected, when possible, over 24 hours (0-24 hours) post administration on Day 1 and Day 7; the absolute amount of Compound 1 measured (mg) is shown Table 48.
# [4] = test system: EPO and VEGF; experiment: Phase 1a multiple ascending dose study: circulating EPO and VEGF levels in serum; assay type: in vivo, human; conditions: serum samples
compound,measurement,setting,value
"CC(C)(C)OC(=O)N1CCN(Cc2ccn(Cc3ccc(Cl)cc3)c(=O)c2O)CC1 [Compound 1, tert-butyl 4-((1-(4-chlorobenzyl)-3-hydroxy-2-oxo-1,2-dihydropyridin-4-yl)methyl)piperazine-1-carboxylate]",Effects on EPO or VEGF from baseline to Day 7 compared to placebo,[1],no consistent or dose-related effects
same,pKa,[2],6.5
same,Mean observed amount of Compound 1 in fecal samples,"[3]; Cohort 1, 60 mg once daily, DAY 7, 0-24 hours",22.0 mg
same,Mean observed amount of Compound 1 in fecal samples,"[3]; Cohort 1, 60 mg, DAY 1, 0-24 hours",11.8 mg
same,Mean observed amount of Compound 1 in fecal samples,"[3]; Cohort 2, 120 mg once daily, DAY 7, 0-24 hours",37.5 mg
same,Mean observed amount of Compound 1 in fecal samples,"[3]; Cohort 2, 120 mg, DAY 1, 0-24 hours",5.9 mg
same,Mean observed amount of Compound 1 in fecal samples,"[3]; Cohort 3, 240 mg once daily, DAY 7, 0-24 hours",125.3 mg
same,Mean observed amount of Compound 1 in fecal samples,"[3]; Cohort 3, 240 mg, DAY 1, 0-24 hours",46.5 mg
same,Mean observed amount of Compound 1 in fecal samples,"[3]; Cohort 4, 120 mg once daily, DAY 7, 0-24 hours",33.9 mg
same,Mean observed amount of Compound 1 in fecal samples,"[3]; Cohort 4, 120 mg, DAY 1, 0-24 hours",14.4 mg
same,Mean observed amount of Compound 1 in fecal samples,"[3]; Cohort 5, 60 mg once daily, DAY 7, 0-24 hours",11.6 mg
same,Mean observed amount of Compound 1 in fecal samples,"[3]; Cohort 5, 60 mg, DAY 1, 0-24 hours",13.0 mg
same,"Mean fecal concentrations of Compound 1, range across cohorts",[3]; Day 1,40 to 225 µg/g
same,"Mean fecal concentrations of Compound 1, range across cohorts",[3]; Day 7,95 to 506 µg/g
same,dose excreted,[3]; Day 1,5 to 22%
same,dose excreted,[3]; Day 7,19 to 52%
same,Effects on circulating EPO and VEGF levels,[4],no Compound 1-related effects
